Legend:
H. virescens [1] = test: Modified feeding disruption bioassay on MVP-hydrated meal pads, field strains; assay type: in vivo, Heliothis virescens; conditions: for percentage producing 0-2 fecal pellets over 24 h: 0.05 μg MVP per ml diet
Experimental: Trypan Blue (Direct Blue 14; Matheson Coleman and Bell, Norwood, Ohio) was blended with artificial diet, 20 mg dye per 100 ml diet. Blue diet aliquots were dispensed (100 μl per well) into 8-well microtiter plate strips (Nalge Nunc Int., Napersville, Ill.). The blue dye served as a marker of feeding on the assay diet, with larvae feeding on colored diet producing blue feces which were easily distinguished visually from feces derived from other food sources. Microtiter plate strips containing blue diet were frozen at −80° C. and lyophilized (Bench Top 6, Virtis, Gardiner, N.Y.; cold trap=−70° C., ˜200 mTorr, ambient temperature=23° C.) for a minimum of 24 h in order to form hydratable meal pads. Meal pads were stored in the dark in sealed plastic bags with desiccant prior to use.
Meal pads were hydrated with aqueous dilutions of the B. thuringiensis CryIAc δ-endotoxin formulation MVP (Mycogen, San Diego, Calif.) at least 1 h prior to the start of assays. Fresh diet aliquots (100 μl) consistently lost 78-84% of their water content by weight during the lyophilization process. Therefore, meal pads were hydrated with 80 μl of MVP in distilled water (treatments) or distilled water only (controls). The insecticide concentrations referenced throughout this paper are in μg MVP per ml of diet, i.e. the final concentration of insecticide in hydrated diet, which is 80% of the concentration of the solution used to hydrate the meal pads. Strip caps (Nunc) were cut into single caps in order to seal wells of the microtiter plate strips individually, which facilitated observation within wells while not allowing neighboring larvae to escape. In order to reduce condensation within the wells and provide larvae with air, caps were punctured twice with a #3 insect pin. Bioassays were conducted at 27±1° C. with a 14:10 (L:D) cycle, and blue fecal pellets were counted at 24 h. Neonates were used in all assays and were exposed to assay diets within 24 h of hatch. The results from each assay are taken from two replicates of each dose, with each replicate consisting of 24 larvae, one larva per well. Control (no dose) treatments were replicated three times. Dead larvae (defined as no movement for 30 s after prodding with a blunt probe) at the assay endpoint (24 h) were discarded and not included in the reported results. For each surviving larva, the number of fecal pellets produced was recorded. Serial dilutions of the MVP formulation were used for meal pad hydration, with separate dilution series prepared for each replicate.
Following 24 h exposure to diet containing a known concentration of MVP (Mycogen), a surviving larva was designated as a ‘feeder’ if it had produced more than two fecal pellets and as a ‘non-feeder’ otherwise. The cut-off value of two fecal pellets was adopted because this provided the clearest separation between species. Probit analyses were applied to the dichotomized fecal pellet counts in order to compare strains, between and within species, with respect to the feeding disruption response. A probit model was then used to relate the proportion of non-feeders to dose (on a log10 scale). Probit curves were fitted separately for each insect strain, and a NFC50 (non-feeding concentration50; log10 of the MVP concentration resulting in 50% non-feeders) and slope was obtained for H. zea. Also, probit curves were compared across species and among strains within species using PROC GENMOD with LINK=PROBIT (SAS 1993) on the data for all strains combined, and fitting effects for species, strains within species, log10 dose, as well as dose by species and dose by strain within species interactions.
Probit estimates of the proportion of feeders at the diagnostic concentration for each strain were used to predict the properties of an assay involving exposure of a small number, n, of larvae in individual wells for 24 h to diet containing a diagnostic concentration of the MVP formulation (final MVP concentration in diet 0.04 μg/ml). […]

H. virescens [2] = conditions: Gould et al. 1995; cited from earlier work

## CryIAc: Bacillus thuringiensis CryIAc δ-endotoxin, commercial formulation MVP (Mycogen), >98.0% δ endotoxin
H. virescens [1]; H. virescens field strains pooled, 0.04 μg MVP per ml diet, 24 h
  percentage of insects producing >10 fecal pellets: < 1%
H. virescens [1]; H. virescens strains, diagnostic concentration 0.04 μg/ml, 24 h
  ps, probability of a larva being a feeder, most conservative probit estimate: 0.02
H. virescens [1]; Hv Franklin neonates
  percentage producing 0-2 fecal pellets over 24 h: 100%
H. virescens [1]; Hv Franklin, 0.04 μg MVP per ml diet, 24 h
  feeding response (>2 fecal pellets): 2.1%
H. virescens [1]; Hv Johnston neonates
  percentage producing 0-2 fecal pellets over 24 h: 95.5%
H. virescens [1]; Hv Quitman (south Georgia), 0.04 μg MVP per ml diet, 24 h
  ps, feeding probability: 0.15
H. virescens [1]; Hv Quitman neonates, 0.04 μg MVP per ml diet, 24 h
  percentage producing >5 fecal pellets: 2.2%
H. virescens [1]; Hv Quitman neonates
  percentage producing 0-2 fecal pellets over 24 h: 95.5%
H. virescens [1]; Hv Quitman, 0.04 μg MVP per ml diet, 24 h
  feeding response (>2 fecal pellets): 14.9%
H. virescens [1]; Hv Washington neonates, 0.04 μg MVP per ml diet, 24 h
  percentage producing >5 fecal pellets: 4.3%
H. virescens [1]; Hv Washington neonates
  percentage producing 0-2 fecal pellets over 24 h: 97.7%
H. virescens [1]; all H. virescens field strains, 0.04 μg MVP per ml diet, 24 h
  fecal pellets produced per larva (none observed above): ≤ 11 fecal pellets
H. virescens [2]
  resistance of YHD2 strain to CryIAc compared to the Wake strain: > 2000 fold
